{"source": "paper PMC9582125", "about": "“Two triphosphate tunnel metalloenzymes from apple exhibit adenylyl cyclase activity” (Frontiers in Plant Science, 2022)", "target": "T1, HpAC1 (Hippeastrum hybrid cultivar, UniProt E1AQY1)", "T1 construct": "gene AC1", "T1 sequence (E1AQY1 1-206)": "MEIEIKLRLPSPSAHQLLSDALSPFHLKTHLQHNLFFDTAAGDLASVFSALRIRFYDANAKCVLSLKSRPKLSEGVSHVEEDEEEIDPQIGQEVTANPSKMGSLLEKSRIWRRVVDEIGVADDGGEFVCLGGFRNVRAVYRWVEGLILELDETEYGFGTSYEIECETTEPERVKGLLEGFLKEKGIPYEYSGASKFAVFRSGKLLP", "experiment": "malachite green phosphate release", "format": "biochemical", "conditions": "divalent cation, pH 7.5, 30 °C; hydrolysis"}
{"smiles": "O=P(O)(O)OP(=O)(O)OP(=O)(O)O", "note": "[PPPi]", "values": [{"measurement": "malachite green phosphate release", "value": "HpAC1 could hydrolyze both organic and inorganic triphosphates like MdTTM2"}]}
